In paper PMC9508125, “The evolutionary advantage of an aromatic clamp in plant family 3 glycoside exo-hydrolases” (Nature Communications, 2022):
Numbering of substitutions follows the chain as printed.

What was measured:
Experiment in all cases: Relative rates of hydrolysis of poly-, oligosaccharides and aryl-glycosides
Type in all cases: biochemical
[1] = target: T1, HvExoI W286F/W434F mutant (Hordeum vulgare, UniProt Q9XEI3, W311F/W459F); details: substance is the substrate, nd = activity not detected
T1 sequence (Q9XEI3 26-630 W311F/W459F): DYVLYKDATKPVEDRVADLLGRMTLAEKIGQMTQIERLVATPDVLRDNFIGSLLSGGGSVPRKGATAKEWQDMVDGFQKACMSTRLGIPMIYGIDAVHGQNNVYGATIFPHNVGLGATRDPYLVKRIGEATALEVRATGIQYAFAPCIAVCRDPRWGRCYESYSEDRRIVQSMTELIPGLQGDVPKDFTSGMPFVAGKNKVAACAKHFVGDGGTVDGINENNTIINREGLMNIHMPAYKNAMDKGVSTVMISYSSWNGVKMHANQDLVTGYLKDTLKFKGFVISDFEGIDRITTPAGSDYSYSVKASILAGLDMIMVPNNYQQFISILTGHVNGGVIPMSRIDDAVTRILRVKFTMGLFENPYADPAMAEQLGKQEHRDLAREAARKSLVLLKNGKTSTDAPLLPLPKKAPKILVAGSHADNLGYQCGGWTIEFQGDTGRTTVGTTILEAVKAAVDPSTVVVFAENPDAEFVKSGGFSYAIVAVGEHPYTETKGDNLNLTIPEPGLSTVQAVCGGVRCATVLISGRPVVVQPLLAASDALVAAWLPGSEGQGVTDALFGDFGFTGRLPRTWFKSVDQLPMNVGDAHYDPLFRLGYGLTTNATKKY
In short: (§1)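 First, pH dependence was tested in McIlvaine buffers at pH 3.5–8.5 and 30 °C. Next, temperature dependence was tested in 100 mM sodium acetate, pH 5.25, at 0–80 °C for 15 min, with both scans on 0.2% (w/v) 4NP-Glc. Relative substrate rates then used 50 pmoles of enzyme.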

HvExoI W434F mutant = target: T2, HvExoI W434F mutant (Hordeum vulgare, UniProt Q9XEI3, W459F); details: substance is the substrate, nd = activity not detected
T2 sequence (Q9XEI3 26-630 W459F): T1 sequence (Q9XEI3 26-630 W311F/W459F) with F286W
In short: as §1

HvExoI W434H mutant = target: T3, HvExoI W434H mutant (Hordeum vulgare, UniProt Q9XEI3, W459H); details: substance is the substrate
T3 sequence (Q9XEI3 26-630 W459H): T1 sequence (Q9XEI3 26-630 W311F/W459F) with F286W, F434H
In short: as §1

HvExoI W434A mutant = target: T4, HvExoI W434A mutant (Hordeum vulgare, UniProt Q9XEI3, W459A); details: substance is the substrate, nd = activity not detected
T4 sequence (Q9XEI3 26-630 W459A): T1 sequence (Q9XEI3 26-630 W311F/W459F) with F286W, F434A
In short: as §1

Molecule	Activity (relative rate of hydrolysis) [1]	Activity (relative rate of hydrolysis) (HvExoI W434F mutant)	Activity (relative rate of hydrolysis) (HvExoI W434H mutant)	Activity (relative rate of hydrolysis) (HvExoI W434A mutant)
Gentiobiose	0.01 ± 0.001 μmole/min per mg protein	1.2 ± 0.3 μmole/min per mg protein	0.3 ± 0.02 μmole/min per mg protein	
OC[C@H]1O[C@@H](O[C@@H]2[C@@H](O)[C@H](O[C@@H]3[C@@H](O)[C@H](O[C@H]4[C@H](O)[C@@H](CO)OC(O)[C@@H]4O)O[C@H](CO)[C@H]3O)O[C@H](CO)[C@H]2O)[C@H](O)[C@@H](O)[C@@H]1O (some centres unmarked) [Laminaritetraose]	0.4 ± 0.04 μmole/min per mg protein	15.0 ± 1.5 μmole/min per mg protein	1.4 ± 0.1 μmole/min per mg protein	1.1 ± 0.1 μmole/min per mg protein
OC[C@H]1O[C@@H](O[C@@H]2[C@@H](O)[C@H](O[C@@H]3[C@@H](O)[C@H](O[C@@H]4[C@@H](O)[C@H](O[C@@H]5[C@@H](O)[C@H](O)O[C@H](CO)[C@H]5O)O[C@H](CO)[C@H]4O)O[C@H](CO)[C@H]3O)O[C@H](CO)[C@H]2O)[C@H](O)[C@@H](O)[C@@H]1O [Laminaripentaose]	0.4 ± 0.04 μmole/min per mg protein	14.6 ± 0.4 μmole/min per mg protein	1.5 ± 0.1 μmole/min per mg protein	1.0 ± 0.1 μmole/min per mg protein
OC[C@H]1O[C@@H](O[C@H]2[C@H](O)[C@@H](O)[C@H](O[C@H]3[C@H](O)[C@@H](O)[C@H](O[C@H]4[C@H](O)[C@@H](O)[C@H](O[C@H]5[C@H](O)[C@@H](O)C(O)O[C@@H]5CO)O[C@@H]4CO)O[C@@H]3CO)O[C@@H]2CO)[C@H](O)[C@@H](O)[C@@H]1O (some centres unmarked) [Cellopentaose]	0.02 ± 0.001 μmole/min per mg protein	1.7 ± 0.1 μmole/min per mg protein	0.2 ± 0.01 μmole/min per mg protein	
OC[C@H]1O[C@@H](O[C@H]2[C@H](O)[C@@H](O)[C@H](O[C@H]3[C@H](O)[C@@H](O)C(O)O[C@@H]3CO)O[C@@H]2CO)[C@H](O)[C@@H](O)[C@@H]1O (some centres unmarked) [Cellotriose]	0.02 ± 0.002 μmole/min per mg protein	1.2 ± 0.3 μmole/min per mg protein	0.3 ± 0.03 μmole/min per mg protein	
OC[C@H]1O[C@@H](O[C@@H]2[C@@H](O)[C@H](O[C@@H]3[C@@H](O)[C@H](O[C@@H]4[C@@H](O)[C@H](O[C@@H]5[C@@H](O)[C@H](O[C@@H]6[C@@H](O)[C@H](O[C@@H]7[C@@H](O)[C@H](O)O[C@H](CO)[C@H]7O)O[C@H](CO)[C@H]6O)O[C@H](CO)[C@H]5O)O[C@H](CO)[C@H]4O)O[C@H](CO)[C@H]3O)O[C@H](CO)[C@H]2O)[C@H](O)[C@@H](O)[C@@H]1O [Laminariheptaose]	0.5 ± 0.04 μmole/min per mg protein	13.5 ± 0.4 μmole/min per mg protein	1.6 ± 0.1 μmole/min per mg protein	1.0 ± 0.1 μmole/min per mg protein
OC[C@H]1O[C@@H](O[C@@H]2[C@@H](O)[C@H](O[C@H]3[C@H](O)[C@@H](CO)OC(O)[C@@H]3O)O[C@H](CO)[C@H]2O)[C@H](O)[C@@H](O)[C@@H]1O (some centres unmarked) [Laminaritriose]	0.5 ± 0.04 μmole/min per mg protein	18.4 ± 1.4 μmole/min per mg protein	1.5 ± 0.04 μmole/min per mg protein	0.9 ± 0.1 μmole/min per mg protein
OC[C@H]1O[C@@H](O[C@H]2[C@H](O)[C@@H](O)[C@H](O[C@H]3[C@H](O)[C@@H](O)[C@H](O[C@H]4[C@H](O)[C@@H](O)[C@H](O[C@H]5[C@H](O)[C@@H](O)[C@H](O[C@H]6[C@H](O)[C@@H](O)C(O)O[C@@H]6CO)O[C@@H]5CO)O[C@@H]4CO)O[C@@H]3CO)O[C@@H]2CO)[C@H](O)[C@@H](O)[C@@H]1O (some centres unmarked) [Cellohexaose]	0.01 ± 0.001 μmole/min per mg protein	1.9 ± 0.1 μmole/min per mg protein	0.3 ± 0.02 μmole/min per mg protein	
OC[C@H]1O[C@@H](O[C@@H]2[C@@H](O)[C@H](O[C@@H]3[C@@H](O)[C@H](O[C@@H]4[C@@H](O)[C@H](O[C@@H]5[C@@H](O)[C@H](O[C@H]6[C@H](O)[C@@H](CO)OC(O)[C@@H]6O)O[C@H](CO)[C@H]5O)O[C@H](CO)[C@H]4O)O[C@H](CO)[C@H]3O)O[C@H](CO)[C@H]2O)[C@H](O)[C@@H](O)[C@@H]1O (some centres unmarked) [Laminarihexaose]	0.5 ± 0.1 μmole/min per mg protein	15.8 ± 1.0 μmole/min per mg protein	1.5 ± 0.1 μmole/min per mg protein	1.0 ± 0.02 μmole/min per mg protein
OC[C@H]1O[C@@H](O[C@H]2[C@H](O)[C@@H](O)[C@H](O[C@H]3[C@H](O)[C@@H](O)[C@H](O[C@H]4[C@H](O)[C@@H](O)C(O)O[C@@H]4CO)O[C@@H]3CO)O[C@@H]2CO)[C@H](O)[C@@H](O)[C@@H]1O (some centres unmarked) [Cellotetraose]	0.02 ± 0.001 μmole/min per mg protein	1.9 ± 0.1 μmole/min per mg protein	0.2 ± 0.01 μmole/min per mg protein	
Cellobiose	0.01 ± 0.001 μmole/min per mg protein	0.4 ± 0.1 μmole/min per mg protein	0.1 ± 0.01 μmole/min per mg protein	
OC[C@H]1O[C@@H](O[C@H]2C(O)O[C@H](CO)[C@@H](O)[C@@H]2O)[C@H](O)[C@@H](O)[C@@H]1O (some centres unmarked) [Sophorose]	0.3 ± 0.03 μmole/min per mg protein	6.6 ± 0.4 μmole/min per mg protein	0.6 ± 0.1 μmole/min per mg protein	
